From US5508039A (priority 1994, dated 1996)

Legend:
[1] = assay type: in vivo, human
Procedure: (§1) Therapeutic blood levels from 20 pg/ml to 1,000 pg/ml can be obtained from administration rates in the range of […]. […] Therapeutic blood levels can be achieved within approximately 2 hours, and peak blood concentrations are achieved at about 4-6 hours when the system is worn for 4-6 hours. […] The system application is easily adapted for shorter or longer duration treatments, but generally 6 hours is the nominal duration for treatment of most insomnias.

insomniacs = conditions: oral; cited from earlier work
breast cancer = conditions: cited from earlier work
[2] = tested on: intraocular pressure in glaucoma; conditions: cited from earlier work
clinical = assay type: in vivo, human
Procedure: as §1

[3] = tested on: desynchronized blind persons; conditions: oral; cited from earlier work
[4] = general statement; cited from earlier work
mice = conditions: cited from earlier work
[5] = cited from earlier work
[6] = human, in vivo; cited from earlier work
[7] = human, in vivo, topical or ocular

## COc1ccc2[nH]cc(CCNC(C)=O)c2c1 [melatonin, N-acetyl-5-methoxytryptamine]
[1]
  skin flux through living human skin: 0.05-10 mg/cm^2 /hr
insomniacs
  mood, drive, alertness, and reaction time the next day: improved
  time awake before sleep onset, sleep latency and number of awakenings: reduced the time awake before sleep onset and diminished sleep latency and number of awakenings
Breast cancer
  inhibition of breast cancer: inhibit breast cancer
[2]
  intraocular pressure: lower intraocular pressure in glaucoma
clinical
  desired and achievable system flux through the skin from a limited area: 0,025-1.0
clinical; [7]
  Tmax: 4 to 6 h
  half-life: 1 to 2 h
clinical; in vivo
  time to achieve therapeutic blood levels: ≤ 2 h
[3]
  timing of sleep cycles: Improved timing of sleep cycles
[4]
  toxicity: relatively non-toxic
mice; intraperitoneal
  LD50 intraperitoneal: 1375 mg/kg
mice; intravenous
  LD50 intravenous: 180 mg/kg
[5]; in vivo, po
  absorption through the gastrointestinal tract: readily absorbed
[5]; oral
  inactivation by liver of absorbed melatonin on first-pass: ≤ 99%
[6]
  metabolic clearance: approximately 1 liter per minute
  terminal plasma elimination half-life: approximately 45 minutes
  volume of distribution: approximately 40 liters
